The source of these data is patent US10149839B2, “Chemical compounds” (AstraZeneca AB, priority 2016, dated 2018).

Converted amounts (≈) assume the structure as drawn. Bounds are passed on as bounds.

Series [1] is described as follows: Human plasma protein binding (equilibrium dialysis). It counts as in vitro ADME. The settings on record: dialysis 18 hours. In general terms: Equilibrium dialysis compares concentrations on both sides of a semipermeable membrane.
The target in series [2] is estrogen receptor (ERα) in CAMA-1 cells (Homo sapiens (Human), UniProt P03372). The experiment in a line: Western blotting assay, CAMA-1 cells. Type of series: cell-based. The settings on record: compound 100 nM, 48 h, normalised to 100 nM fulvestrant (100%). A general note: A western blot detects proteins with antibodies after separation by electrophoresis.
Series [3] has as its target T1, Estrogen Receptor (ERα) in MCF-7 cells (Homo sapiens (Human), UniProt P03372). The experiment in a line: MCF-7 ER down-regulation assay (immuno-fluorescence). It counts as cell-based. Particulars: for IC50: 18-22 hours incubation.
Series [4] is described as follows: Thermodynamic solubility (shake flask). It counts as physicochemical. Particulars: aqueous phosphate buffer, 25 °C, pH 7.4, aqueous buffer, thermodynamic from solid, aqueous phosphate buffer pH 7.4, 24 hours.
Another series can be described thus: physchem. The settings on record: 1-octanol/aqueous buffer, pH 7.4.
In series [5] the target is T1, Estrogen Receptor (ERα) in MCF-7 cells. The experiment in a line: Western blotting assay, MCF-7 cells. The settings on record: compound 100 nM, 48 h, normalised to 100 nM fulvestrant (100%). It counts as cell-based.

Chain of estrogen receptor (ERα) in CAMA-1 cells (P03372 whole entry): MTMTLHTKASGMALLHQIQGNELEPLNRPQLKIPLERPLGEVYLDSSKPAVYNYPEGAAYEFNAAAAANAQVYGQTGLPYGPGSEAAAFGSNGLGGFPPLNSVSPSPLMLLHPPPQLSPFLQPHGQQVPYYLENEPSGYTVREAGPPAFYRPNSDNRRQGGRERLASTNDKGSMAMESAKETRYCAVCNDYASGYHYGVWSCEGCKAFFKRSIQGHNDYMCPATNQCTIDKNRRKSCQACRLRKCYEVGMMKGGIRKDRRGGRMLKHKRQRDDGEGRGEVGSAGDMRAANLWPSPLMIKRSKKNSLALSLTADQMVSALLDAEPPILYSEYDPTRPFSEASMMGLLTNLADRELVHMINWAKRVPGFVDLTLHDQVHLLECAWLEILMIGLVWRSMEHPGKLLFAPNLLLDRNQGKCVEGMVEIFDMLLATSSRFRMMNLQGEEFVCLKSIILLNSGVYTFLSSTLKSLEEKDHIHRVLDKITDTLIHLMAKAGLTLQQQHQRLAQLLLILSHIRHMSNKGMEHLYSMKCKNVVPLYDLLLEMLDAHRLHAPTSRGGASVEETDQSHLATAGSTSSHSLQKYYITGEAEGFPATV
T1 sequence (P03372 whole entry): as above

`COc1cc(OCCNCCCF)ncc1[C@@H]1c2[nH]c3ccccc3c2C[C@@H](C)N1CC(C)(C)F` [Example 36, 3-fluoro-N-(2-((5-((1R,3R)-2-(2-fluoro-2-methylpropyl)-3-methyl-2,3,4,9-tetrahydro-1H-pyrido[3,4-b]indol-1-yl)-4-methoxypyridin-2-yl)oxy)ethyl)propan-1-amine]: the “Human plasma protein binding (% free)” value in series [1] is recorded as 2.1 % free. The “CAMA1 Western % ER deg vs Fv” value in series [2] is 66%. Besides, half-maximal inhibition in series [3] (IC50) was put at 0.14 nM. The compound further showed a solubility at 24 h in series [4] of 291 µM (≈ 142 µg/mL). In “physchem”, this compound had a logD of 3.5. The “MCF7 Western % ER deg vs Fv” value in series [5] worked out at 83%.

On to `COCC(F)(F)CN1[C@H](c2c(F)cc(OCCNCCCF)cc2F)c2[nH]c3ccccc3c2C[C@H]1C` [Example 14, N-(2-(4-((1R,3R)-2-(2,2-difluoro-3-methoxypropyl)-3-methyl-2,3,4,9-tetrahydro-1H-pyrido[3,4-b]indol-1-yl)-3,5-difluorophenoxy)ethyl)-3-fluoropropan-1-amine], for which, in series [1], the “Human plasma protein binding (% free)” value came to 0.9 % free. Besides, in series [2], the “CAMA1 Western % ER deg vs Fv” value is 31%. Also, the 50% inhibitory concentration (IC50) in series [3] stood at 0.64 nM. In series [3] (shown in brackets where not >90%), the “% downregulation” value is on record as “(89%)”. In series [4], this compound displayed a solubility at 24 h of 10 µM (≈ 5.26 µg/mL). Also, the logD in “physchem” is 3.6. Further, the “MCF7 Western % ER deg vs Fv” value in series [5] stood at 61%.

Consider `COc1cc(OCCNCCCF)cnc1[C@@H]1c2[nH]c3ccccc3c2C[C@@H](C)N1CC(C)(C)F` [Example 35, 3-fluoro-N-(2-((6-((1S,3R)-2-(2-fluoro-2-methylpropyl)-3-methyl-2,3,4,9-tetrahydro-1H-pyrido[3,4-b]indol-1-yl)-5-methoxypyridin-3-yl)oxy)ethyl)propan-1-amine], for which the “Human plasma protein binding (% free)” value in series [1] is reported as 2.2 % free. For the same compound, the “CAMA1 Western % ER deg vs Fv” value in series [2] is recorded as 82%. In series [3], this compound registered an IC50 of 0.28 nM. The compound further displayed a solubility at 24 h in series [4] of 99 µM (≈ 48.2 µg/mL). Besides, the pH-dependent lipophilicity (logD) in the series “physchem” came out at 3.8. The “MCF7 Western % ER deg vs Fv” value in series [5] came out at 81%.

For the compound `COc1cc(OCCNCCCF)ncc1[C@@H]1c2[nH]c3ccccc3c2C[C@@H](C)N1CC1(F)COC1` [Example 7, 3-fluoro-N-(2-((5-((1R,3R)-2-((3-fluorooxetan-3-yl)methyl)-3-methyl-2,3,4,9-tetrahydro-1H-pyrido[3,4-b]indol-1-yl)-4-methoxypyridin-2-yl)oxy)ethyl)propan-1-amine], the “Human plasma protein binding (% free)” value in series [1] came to 17 % free. The “CAMA1 Western % ER deg vs Fv” value in series [2] is on record as 48%. Moreover, the IC50 in series [3] was found to be 0.51 nM. For the same compound, in series [4], the solubility at 24 h is more than 1000 µM. In addition, the log distribution coefficient (logD) in “physchem” was determined as 2.3. For the same compound, in series [5], the “MCF7 Western % ER deg vs Fv” value was found to be 74%.

`C[C@@H]1Cc2c([nH]c3ccccc23)[C@@H](c2c(F)cc(NCCNCCCF)cc2F)N1CC1(F)COC1` [Example 44, N1-(3,5-difluoro-4-((1R,3R)-2-((3-fluorooxetan-3-yl)methyl)-3-methyl-2,3,4,9-tetrahydro-1H-pyrido[3,4-b]indol-1-yl)phenyl)-N2-(3-fluoropropyl)ethane-1,2-diamine]: in series [1], the “Human plasma protein binding (% free)” value turned out to be 2.3 % free. For the same compound, the “CAMA1 Western % ER deg vs Fv” value in series [2] is recorded as 90%. The compound further had an IC50 in series [3] of 0.17 nM. This compound came in with a solubility at 24 h in series [4] of 577 µM (≈ 291 µg/mL). The same compound showed a logD in the series “physchem” of 3.1. The “MCF7 Western % ER deg vs Fv” value in series [5] turned out to be 85%.

`C[C@@H]1Cc2c([nH]c3ccccc23)[C@@H](c2c(F)cc(OCCNCCC(F)F)cc2F)N1CC(C)(C)F` [Example 3, N-(2-(3,5-difluoro-4-((1R,3R)-2-(2-fluoro-2-methylpropyl)-3-methyl-2,3,4,9-tetrahydro-1H-pyrido[3,4-b]indol-1-yl)phenoxy)ethyl)-3,3-difluoropropan-1-amine]: in series [1], the “Human plasma protein binding (% free)” value was less than 2.6 % free. Further, in series [2], the “CAMA1 Western % ER deg vs Fv” value stood at 0%. This compound also had a 50% inhibitory concentration (IC50) in series [3] of 0.14 nM. In addition, the solubility at 24 h in series [4] amounted to 4 µM (≈ 2.04 µg/mL). The compound also registered a logD in “physchem” of more than 4.3. The “MCF7 Western % ER deg vs Fv” value in series [5] came to 64%.

As for `COc1cc(OCCNCCCF)ncc1[C@@H]1c2[nH]c3ccccc3c2C[C@@H](C)N1CC(F)(F)CO` [Example 64, 2,2-difluoro-3-((1R,3R)-1-(6-(2-((3-fluoropropyl)amino)ethoxy)-4-methoxypyridin-3-yl)-3-methyl-1,3,4,9-tetrahydro-2H-pyrido[3,4-b]indol-2-yl)propan-1-ol], the “Human plasma protein binding (% free)” value in series [1] was 12 % free. Also, the “CAMA1 Western % ER deg vs Fv” value in series [2] is given as 87%. This compound showed an IC50 in series [3] of 0.21 nM. Moreover, the solubility at 24 h in series [4] came to 849 µM (≈ 430 µg/mL). This compound yielded a logD in the series “physchem” of 2.2. Besides, the “MCF7 Western % ER deg vs Fv” value in series [5] was determined as 73%.

Take `C[C@@H]1Cc2c([nH]c3ccccc23)[C@@H](c2c(F)cc(N(C)CCNCCCF)cc2F)N1CC1(F)CC1` [Example 45, N1-(3,5-difluoro-4-((1R,3R)-2-((1-fluorocyclopropyl)methyl)-3-methyl-2,3,4,9-tetrahydro-1H-pyrido[3,4-b]indol-1-yl)phenyl)-N2-(3-fluoropropyl)-N1-methylethane-1,2-diamine]: the “Human plasma protein binding (% free)” value in series [1] came out at 1.0 % free. The “CAMA1 Western % ER deg vs Fv” value in series [2] is reported as 72%. Half-maximal inhibition in series [3] (IC50) was put at 0.31 nM. In addition, in series [4], the solubility at 24 h was determined as 85 µM (≈ 42.7 µg/mL). In addition, in “physchem”, the logD is 3.5. For the same compound, the “MCF7 Western % ER deg vs Fv” value in series [5] is 97%.

For the compound `C[C@@H]1Cc2c([nH]c3ccccc23)[C@@H](c2c(F)cc(NCCNCCCF)cc2F)N1CC(F)(F)CO` [Example 46, 3-((1R,3R)-1-(2,6-difluoro-4-((2-((3-fluoropropyl)amino)ethyl)amino)phenyl)-3-methyl-1,3,4,9-tetrahydro-2H-pyrido[3,4-b]indol-2-yl)-2,2-difluoropropan-1-ol], in series [1], the “Human plasma protein binding (% free)” value was found to be 2.3 % free. The “CAMA1 Western % ER deg vs Fv” value in series [2] was found to be 74%. Also, the half-inhibitory concentration (IC50) in series [3] came to 0.093 nM. Further, the solubility at 24 h in series [4] came out at 952 µM (≈ 486 µg/mL). In the series “physchem”, this compound yielded a logD of 2.6. Besides, the “MCF7 Western % ER deg vs Fv” value in series [5] is reported as 88%.

Consider `COc1cc(OCCNCCCF)ncc1[C@@H]1c2[nH]c3ccccc3c2C[C@@H](C)N1CC(C)(F)F` [Example 42, N-(2-((5-((1R,3R)-2-(2,2-Difluoropropyl)-3-methyl-2,3,4,9-tetrahydro-1H-pyrido[3,4-b]indol-1-yl)-4-methoxypyridin-2-yl)oxy)ethyl)-3-fluoropropan-1-amine], for which the “Human plasma protein binding (% free)” value in series [1] is recorded as 1.6 % free. For the same compound, in series [2], the “CAMA1 Western % ER deg vs Fv” value is recorded as 76%. The compound further gave an IC50 in series [3] of 0.079 nM. The compound also showed a solubility at 24 h in series [4] of 220 µM (≈ 108 µg/mL). In “physchem”, this compound had a pH-dependent lipophilicity (logD) of 3.3. For the same compound, in series [5], the “MCF7 Western % ER deg vs Fv” value worked out at 90%.

With `COc1nc(OCCNCCCF)ccc1[C@@H]1c2[nH]c3ccccc3c2C[C@@H](C)N1CC(F)F` [Example 75, N-(2-((5-((1R,3R)-2-(2,2-difluoroethyl)-3-methyl-2,3,4,9-tetrahydro-1H-pyrido[3,4-b]indol-1-yl)-6-methoxypyridin-2-yl)oxy)ethyl)-3-fluoropropan-1-amine], the “Human plasma protein binding (% free)” value in series [1] was 1.0 % free. The “CAMA1 Western % ER deg vs Fv” value in series [2] was found to be 60%. The IC50 in series [3] is 1.2 nM. The compound further came in with a solubility at 24 h in series [4] of 411 µM (≈ 196 µg/mL). The compound also showed a logD in the series “physchem” of 3.4. In addition, the “MCF7 Western % ER deg vs Fv” value in series [5] was determined as 31%.

The term IC50 denotes the midpoint of a concentration-inhibition curve. Read a high IC50 as a need for much substance. The term solubility denotes the dissolved amount per volume that the medium holds. A high value points to a readily soluble substance. One may read the logD as lipophilicity at a set pH, counting ionised and neutral species. A low value points to lower lipophilicity.
